Experimental findings from US20230248665A1, “COMPOSITION COMPRISING DIMETHYLCHALCONE DERIVATIVE FOR PREVENTION OR TREATMENT OF METABOLIC DISEASE” (SEOUL NATIONAL UNIVERSITY R & DB FOUNDATION, priority 2020, published 2023) are described below.

SMILES strings stand for the structures.

Format in all cases: cell-based
Assay [1] concerns vascular endothelial cells (HUVECs) and THP-1 (human monocyte) immune cells. Put plainly: Binding of THP-1 immune cells to TNFα-treated vascular endothelial cells (HUVECs). The note with it: 10 µM with 10 ng/mL TNFα, 24 hours, then THP-1 for 1 hour; FIG. 5. As to the method: In the early stages of progression of vascular diseases such as arteriosclerosis, adhesion materials are expressed in vascular endothelial cells due to various environmental factors, thereby increasing the binding of immune cells. Therefore, in order to check whether the DMC derivatives of Example 1 affect the binding between vascular endothelial cells and immune cells, vascular endothelial cells (HUVECs) were treated with 10 ng/mL TNFα and 10 µM DMC derivative and cultured for 24 hours. Then, THP-1 (human monocyte) immune cells labeled with a fluorescent protein were added to the culture solution, and the cells were additionally cultured for 1 hour. After the culture was completed, unbound immune cells were removed using a phosphate buffer solution, and then the degree of binding of immune cells to vascular endothelial cells was determined by measuring the intensity of fluorescence.

The subject of assay [2] is human kidney proximal tubule epithelial cell (HK-2) cell line. Put plainly: Antioxidant effect, intracellular reactive oxygen species (DCF-DA) in HK-2 kidney cells after H2O2. As to conditions: 1 µM for 18 hours, then 500 µM H2O2 for 6 hours, FIG. 6. As for the experimental part:
First, the antioxidant effect was checked using kidney cells. More specifically, a human kidney proximal tubule epithelial cell (HK-2) cell line was treated with 1 µM DMC derivative and cultured for 18 hours. Then, 500 µM H2O2 was added to the culture medium and the culture medium was incubated for 6 hours. Thereafter, the amount of intracellular reactive oxygen species (iROS) was measured using dichlorohydro-fluorescein diacetate (DCF-DA).

Assay [3] concerns AMPK. Description: AMPK activity, western blotting of phosphorylated AMPK in C2C12 myotubes. As to conditions: 10 µM, 24 hours, FIG. 2. The source says: AMP-activated protein kinase (AMPK) is a member of serine/threonine kinases, and is an enzyme known as an energy sensor which senses the intracellular energy state. Moreover, the activation of AMPK is known to show the effect of increasing glucose transport and promoting fatty acid oxidation in skeletal muscle, and to […] the synthesis of cholesterol and triglycerides, decrease lipogenesis, and increase fatty acid oxidation, and ketogenesis, and the like in the liver. Further, the activation of AMPK is known to reduce adipogenesis in adipose tissue and increase insulin secretion in pancreatic beta cells, thereby being able to be applied to the treatment of various metabolic diseases. Therefore, western blotting was performed in order to confirm the effect of the DMC derivatives of Example 1 on AMPK activity. More specifically, the C2C12 myoblasts were primarily cultured in DMEM supplemented with 10% fetal bovine serum, and then cultured in DMEM supplemented with 2% horse serum for 5 days to differentiate into myotubes. Then, the differentiated myotubes were treated with 10 µM DMC derivative and cultured for 24 hours, and then cells were collected, and disrupted using an ultrasonic disperser to obtain proteins. Next, western blotting was performed using a pAMPK antibody (Cell Signaling Technology) and an AMPK antibody (Cell Signaling Technology) to measure the amount of phosphorylated AMPK. 1 mM AICAR was used as a positive control, and 20 µg of protein was used for each sample in western blotting.
(A western blot detects proteins with antibodies after separation by electrophoresis.)

Assay [4] relates to rat aortic smooth muscle cells. Put plainly: PDGF-induced migration of vascular smooth muscle cells. The note with it: 1 µM with 10 ng/mL PDGF; FIG. 4. As for the experimental part:
Proliferation and migration of vascular smooth muscle cells are known to be essential steps in the progression of vascular diseases such as restenosis and arteriosclerosis. Therefore, in order to confirm the effect of the DMC derivatives of Example 1 on the migration of rat aortic smooth muscle cells, smooth muscle cells were treated with 10 ng/mL platelet-derived growth factor (PDGF) and 1 µM DMC derivative and cultured. Then, the degree of cell migration was measured.

For `COc1c(C)c(O)c(C)c(O)c1C(=O)/C=C/c1ccc(N(C)C)cc1` [Chemical Formula 7, 1-(2,4′-dihydroxy-6′-methoxy-3′,5′-dimethylphenyl)-3-(4-(N,N-dimethylamino)phenyl)-2-propen-1-one], the “binding of immune cells to vascular endothelial cells (fluorescence)” value (“binding of immune cells” below) in assay [1] is “similarly or more effectively suppressed the binding of immune cells than Rosi”. Also, in assay [2], the “amount of intracellular reactive oxygen species (ROS)” value (“amount” for short) is “effectively reduced ROS”.
`COCOc1c(C)c(O)c(C(=O)/C=C/c2ccc(C(F)(F)F)cc2)c(OC)c1C` [Chemical Formula 14, 1-(2′-hydroxy-4′-(methoxymethoxy)-6′-methoxy-3′,5′-dimethylphenyl)-3-(4-(trifluoromethyl)phenyl)-2-propen-1-one]: the “binding of immune cells” value in assay [1] is reported as “similarly or more effectively suppressed the binding of immune cells than Rosi”. In addition, the “amount” value in assay [2] is given as “effectively reduced ROS”.
With `COCOc1c(C)c(O)c(C(=O)/C=C/c2ccc(F)c(F)c2)c(OC)c1C` [Chemical Formula 11, 1-(2′-hydroxy-4′-(methoxymethoxy)-6′-methoxy-3′,5′-dimethylphenyl)-3-(3,4-difluorophenyl)-2-propen-1-one], the “activity of AMPK (phosphorylated AMPK)” value in assay [3] is on record as “increased the activity of AMPK similarly to or more effectively than the positive controls”. For the same compound, the “binding of immune cells” value in assay [1] is given as “similarly or more effectively suppressed the binding of immune cells than Rosi”. In addition, in assay [2], the “amount” value is on record as “effectively reduced ROS”.
Turning to `COc1c(C)c(O)c(C)c(O)c1C(=O)/C=C/c1ccc(Cl)cc1` [Chemical Formula 8, 1-(2′,4′-dihydroxy-6′-methoxy-3′,5′-dimethylphenyl)-3-(4-chlorophenyl)-2-propen-1-one], the “activity of AMPK (phosphorylated AMPK)” value in assay [3] is reported as “increased the activity of AMPK similarly to or more effectively than the positive controls”. The “binding of immune cells” value in assay [1] is recorded as “similarly or more effectively suppressed the binding of immune cells than Rosi”. The “amount” value in assay [2] was “effectively reduced ROS”.
Regarding `COc1c(C)c(O)c(C)c(O)c1C(=O)/C=C/c1ccc(F)c(F)c1` [Chemical Formula 6, 1-(2′,4′-dihydroxy-6′-methoxy-3′,5′-dimethylphenyl)-3-(3,4-difluorophenyl)-2-propen-1-one], the “activity of AMPK (phosphorylated AMPK)” value in assay [3] is given as “increased the activity of AMPK similarly to or more effectively than the positive controls”. In addition, in assay [1], the “binding of immune cells” value was “similarly or more effectively suppressed the binding of immune cells than Rosi”. The “amount” value in assay [2] is reported as “effectively reduced ROS”.
As to `COc1c(C)c(O)c(C)c(O)c1C(=O)/C=C/c1ccc(C)cc1C` [Chemical Formula 39, 1-(2′,4′-dihydroxy-6′-methoxy-3′,5′-dimethylphenyl)-3-(2,4-dimethylphenyl)-2-propen-1-one], in assay [3], the “activity of AMPK (phosphorylated AMPK)” value is “increased the activity of AMPK similarly to or more effectively than the positive controls”. Further, the “migration of vascular smooth muscle cells” value (“migration” for short) in assay [4] was “similarly or more effectively suppressed cell migration by PDGF than AICAR and Rosi, which were used as positive controls, and DMC”. In addition, the “binding of immune cells” value in assay [1] is “similarly or more effectively suppressed the binding of immune cells than Rosi”.
In the case of `CCOc1ccc(/C=C/C(=O)c2c(O)c(C)c(O)c(C)c2OC)cc1F` [Chemical Formula 33, 1-(2′,4′-dihydroxy-6′-methoxy-3′,5′-dimethylphenyl)-3-(4-ethoxy-3-fluorophenyl)-2-propen-1-one], the “migration” value in assay [4] is “similarly or more effectively suppressed cell migration by PDGF than AICAR and Rosi, which were used as positive controls, and DMC”. In assay [1], the “binding of immune cells” value was “similarly or more effectively suppressed the binding of immune cells than Rosi”. The “amount” value in assay [2] is “effectively reduced ROS”.
Regarding `COc1c(C)c(O)c(C)c(O)c1C(=O)/C=C/c1ccc(F)cc1` [Chemical Formula 2, 1-(2′,4′-dihydroxy-6′-methoxy-3′,5′-dimethylphenyl)-3-(4-fluorophenyl)-2-propen-l-one], the “migration” value in assay [4] is “similarly or more effectively suppressed cell migration by PDGF than AICAR and Rosi, which were used as positive controls, and DMC”. Also, in assay [1], the “binding of immune cells” value is reported as “similarly or more effectively suppressed the binding of immune cells than Rosi”. Moreover, in assay [2], the “amount” value is “effectively reduced ROS”.
For the compound `COCOc1c(C)c(O)c(C(=O)/C=C/c2cccc(F)c2)c(OC)c1C` [Chemical Formula 35, 1-(2′-hydroxy-4′-(methoxymethoxy)-6′-methoxy-3′,5′-dimethylphenyl)-3-(3-fluorophenyl)-2-propen-1-one], in assay [1], the “binding of immune cells” value is “similarly or more effectively suppressed the binding of immune cells than Rosi”. The “amount” value in assay [2] is given as “effectively reduced ROS”.
As for `COc1c(C)c(O)c(C)c(O)c1C(=O)/C=C/c1ccccc1F` [Chemical Formula 31, 1-(2′,4′-dihydroxy-6′-methoxy-3′,5′-dimethylphenyl)-3-(2-fluorophenyl)-2-propen-1-one], the “activity of AMPK (phosphorylated AMPK)” value in assay [3] was “increased the activity of AMPK similarly to or more effectively than the positive controls”. The “migration” value in assay [4] is “similarly or more effectively suppressed cell migration by PDGF than AICAR and Rosi, which were used as positive controls, and DMC”. Moreover, the “amount” value in assay [2] was “effectively reduced ROS”.
`COCOc1c(C)c(O)c(C(=O)/C=C/c2ccccc2Cl)c(OC)c1C` [Chemical Formula 38, 1-(2′-hydroxy-4′-(methoxymethoxy)-6′-methoxy-3′,5′-dimethylphenyl)-3-(2-chlorophenyl)-2-propen-1-one]: the “migration” value in assay [4] is “similarly or more effectively suppressed cell migration by PDGF than AICAR and Rosi, which were used as positive controls, and DMC”. Also, the “binding of immune cells” value in assay [1] is “similarly or more effectively suppressed the binding of immune cells than Rosi”.
On to `COCOc1c(C)c(O)c(C(=O)/C=C/c2ccc(Cl)cc2)c(OC)c1C` [Chemical Formula 12, 1-(2′-hydroxy-4′-(methoxymethoxy)-6′-methoxy-3′,5′-dimethyphenyl)-3-(4-chlorophenyl)-2-propen-1-one], for which the “activity of AMPK (phosphorylated AMPK)” value in assay [3] is “increased the activity of AMPK similarly to or more effectively than the positive controls”. The “binding of immune cells” value in assay [1] is recorded as “similarly or more effectively suppressed the binding of immune cells than Rosi”. The “amount” value in assay [2] was “effectively reduced ROS”.
Regarding `COc1c(C)c(O)c(C)c(O)c1C(=O)/C=C/c1ccc(C(F)(F)F)cc1` [Chemical Formula 9, 1-(2′,4′-dihydroxy-6′-methoxy-3′,5′-dimethylphenyl)-3-(4-(trifluoromethyl)phenyl)-2-propen-1-one], in assay [3], the “activity of AMPK (phosphorylated AMPK)” value is listed as “increased the activity of AMPK similarly to or more effectively than the positive controls”. The “binding of immune cells” value in assay [1] is on record as “similarly or more effectively suppressed the binding of immune cells than Rosi”. The “amount” value in assay [2] is “effectively reduced ROS”.
Turning to `COc1ccc(OC)c(/C=C/C(=O)c2c(O)c(C)c(O)c(C)c2OC)c1` [Chemical Formula 10, 1-(2′,4′-dihydroxy-6′-methoxy-3′,5′-dimethylphenyl)-3-(2,5-dimethoxyphenyl)-2-propen-1-one], the “binding of immune cells” value in assay [1] is recorded as “similarly or more effectively suppressed the binding of immune cells than Rosi”. Besides, in assay [2], the “amount” value is on record as “effectively reduced ROS”.
